The source of these data is patent publication US20240287138A1, “CYCLIC PEPTIDES FOR INHIBITING TNF RECEPTOR 1 ACTIVITY” (Merck Sharp & Dohme LLC, priority 2023, published 2024).

Assay [1] has as its target T1, human soluble TNFR1 (sTNFR1) (Homo sapiens, UniProt P19438).
T1 construct: made in house; host or cells: Sf21 (baculovirus)
T1 sequence (P19438 with tags, fused parts or gaps): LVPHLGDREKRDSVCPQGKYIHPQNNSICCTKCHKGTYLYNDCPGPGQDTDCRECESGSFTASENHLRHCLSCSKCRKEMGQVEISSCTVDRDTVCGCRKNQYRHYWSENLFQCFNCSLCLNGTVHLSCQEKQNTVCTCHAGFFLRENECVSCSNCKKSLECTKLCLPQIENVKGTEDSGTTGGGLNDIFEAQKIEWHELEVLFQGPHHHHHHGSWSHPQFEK
Briefly: Human sTNFR1-peptide displacement assay (LanthaScreen Eu TR-FRET binding assay). The procedure, abridged: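 Readout is the 665/615 nm TR-FRET ratio (Eu anti-His donor, streptavidin-Alexa647 acceptor), normalized to DMSO and saturating displacer, fit by Morrison-based five-parameter logistic for Kd^app. His-tagged sTNFR1 (1-211) prebound to 100 nM biotinylated peptide SEQ ID NO.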
In general terms: In TR-FRET formats the signal depends on donor and acceptor labels being close together.

For assay [2], the target named is T2, human TNFR1 extracellular domain (ECD) protein (Homo sapiens, UniProt P19438).
T2 construct: HRV 3C protease cleavage site (C); 6His (C, cleaved yes); made in house; host or cells: Sf21 insect cells (baculovirus), secreted
T2 sequence (P19438 30-211): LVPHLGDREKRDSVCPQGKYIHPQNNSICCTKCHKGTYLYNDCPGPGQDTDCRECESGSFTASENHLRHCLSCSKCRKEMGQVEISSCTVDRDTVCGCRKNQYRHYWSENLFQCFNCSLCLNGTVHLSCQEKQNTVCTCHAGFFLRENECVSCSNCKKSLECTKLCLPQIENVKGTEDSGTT
The assay can be described thus: SPR binding affinity to captured human TNFR1 ECD. The procedure, abridged: (§1)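 Insect-cell human receptor ECDs, enzymatically biotinylated, immobilized via streptavidin capture chip. Peptide binding and dissociation measured in RU in pH 7.4 HEPES buffer containing 2% DMSO; chip regenerated per analyte. Rate constants give affinity.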

The next assay deals with T3, human TNFR2 ECD protein (Homo sapiens, UniProt P20333).
T3 construct: HRV 3C protease cleavage site (C); 6His (C, cleaved yes); made in house; host or cells: Sf21 insect cells (baculovirus), secreted
T3 sequence (P20333 23-257): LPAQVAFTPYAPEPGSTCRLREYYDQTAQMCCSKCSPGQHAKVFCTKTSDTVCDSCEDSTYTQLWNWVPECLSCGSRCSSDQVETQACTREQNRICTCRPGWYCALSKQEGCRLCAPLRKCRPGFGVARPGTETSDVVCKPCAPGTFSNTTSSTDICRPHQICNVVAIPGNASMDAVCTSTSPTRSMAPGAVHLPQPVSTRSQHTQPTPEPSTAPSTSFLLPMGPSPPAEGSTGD
Briefly: SPR off-target binding (selectivity) to human TNFR2 ECD. In short, it runs like this: as §1

Where [3] appears, read: displacement of biotinylated peptide SEQ ID NO. 1 from sTNFR1, 20 point titration, 5-parameter fit based on Morrison equation (tight binding), read-out: TR-FRET Kd^app.
Where [4] appears, read: biotinylated human TNFR1 ECD on streptavidin chip, from kon and koff, read-out: SPR hTNFR1 KD.
The mark [5] stands for this setting: biotinylated human TNFR2 ECD on streptavidin chip, read-out: SPR hTNFR2 KD.

SMILES strings stand for the structures. Like-named read-outs stand apart in the source and are kept apart here. Numbered stars: 1 amine (or outer) side, 2 acyl side, 3 side chain; on linkers, the order of the positions; unused ones are H or OH. Bridge positions count the residues as written; N and C are the ends. Square brackets hold non-standard residues; d marks the D form. Peptide text beside a SMILES is read from it. * marks the point of attachment. Trp(βS-Me,7-OMe) = COc1cccc2c([C@H](C)[C@H](N)C(=O)O)c[nH]c12; Phe(4-CH2CH2COOH) = N[C@@H](Cc1ccc(CCC(=O)O)cc1)C(=O)O; Phe(4-SO2NH2) = N[C@@H](Cc1ccc(S(N)(=O)=O)cc1)C(=O)O; Phe(2-F,4-COOH) = N[C@@H](Cc1ccc(C(=O)O)cc1F)C(=O)O; Trp(7-CN) = N#Cc1cccc2c(C[C@H](N)C(=O)O)c[nH]c12; Trp(7-Cl) = N[C@@H](Cc1c[nH]c2c(Cl)cccc12)C(=O)O; Phe(4-CONH2) = NC(=O)c1ccc(C[C@H](N)C(=O)O)cc1; Phe(4-COOH) = N[C@@H](Cc1ccc(C(=O)O)cc1)C(=O)O; Trp(7-aza) = N[C@@H](Cc1c[nH]c2ncccc12)C(=O)O; Pip(5R-OH) = O=C(O)[C@@H]1CC[C@@H](O)CN1; X1 = O=C([C@@H]1CC[C@H](N[*:1])C1)[*:2]; NMeT = CN[C@H](C(=O)O)[C@@H](C)O; 4Pal = N[C@@H](Cc1ccncc1)C(=O)O; NMeE = CN[C@@H](CCC(=O)O)C(=O)O; dHyp = O=C(O)[C@H]1C[C@H](O)CN1; NEtAla = CCN[C@@H](C)C(=O)O; αMeS = C[C@](N)(CO)C(=O)O; Carboxymethyl = O=C(O)C*; Nle = CCCC[C@H](N)C(=O)O; Sar = CNCC(=O)O

Turning to `CCCC[C@@H]1NC(=O)CSC[C@@H](C(N)=O)NC(=O)[C@H]([C@@H](C)c2c[nH]c3c(OC)cccc23)NC(=O)CN(C)C(=O)[C@H](Cc2ccc(O)cc2)NC(=O)[C@H](Cc2ccc(C(=O)O)cc2)NC(=O)[C@](C)(CO)NC(=O)[C@H](Cc2c[nH]c3c(Cl)cccc23)NC(=O)[C@H](Cc2ccncc2)NC(=O)[C@H](CC(N)=O)NC(=O)[C@H](CCC(=O)O)N(C)C(=O)[C@H](Cc2c[nH]c3ncccc23)NC(=O)[C@H]([C@@H](C)O)N(C)C(=O)[C@H](Cc2ccncc2)NC1=O` [SEQ ID NO. 29] ({CH2CO}-[Nle][4Pal][NMeT][Trp(7-aza)][NMeE]N[4Pal][Trp(7-Cl)][αMeS][Phe(4-COOH)]Y[Sar][Trp(βS-Me,7-OMe)]C-NH2; thioether N-14), the Kd in assay [1] is 0.65 nM; in assay [2], 0.28 nM; on human TNFR2 ECD protein it was greater than 1000 nM.
For `CCCC[C@@H]1NC(=O)[C@@H]2CC[C@@H](C2)NC(=O)[C@H]([C@@H](C)c2c[nH]c3c(OC)cccc23)NC(=O)CN(C)C(=O)[C@H](Cc2ccc(CCC(=O)O)cc2)NC(=O)[C@H](Cc2ccc(S(N)(=O)=O)cc2)NC(=O)[C@](C)(CO)NC(=O)[C@H](Cc2c[nH]c3c(C#N)cccc23)NC(=O)[C@H](Cc2ccc(OCC(=O)O)cc2)NC(=O)[C@H](CC(N)=O)NC(=O)[C@H]2C[C@H](O)CN2C(=O)[C@H](Cc2c[nH]c3ncccc23)NC(=O)[C@@H]2CC[C@@H](O)CN2C(=O)[C@H](Cc2ccncc2)NC1=O` [SEQ ID NO. 30] (cyclo([4Pal][Pip(5R-OH)][Trp(7-aza)][dHyp]NY(Carboxymethyl)[Trp(7-CN)][αMeS][Phe(4-SO2NH2)][Phe(4-CH2CH2COOH)][Sar][Trp(βS-Me,7-OMe)][X1][Nle])), the Kd in assay [1] (setting [3]) was 0.07 nM; in assay [2] (setting [4]) it was 0.05 nM; at human TNFR2 ECD protein (setting [5]), greater than 1000 nM.
`CCCC[C@@H]1NC(=O)CSC[C@@H](C(N)=O)NC(=O)[C@H]([C@@H](C)c2c[nH]c3c(OC)cccc23)NC(=O)CN(C)C(=O)[C@H](Cc2ccc(O)cc2)NC(=O)[C@H](Cc2ccc(C(=O)O)cc2)NC(=O)[C@](C)(CO)NC(=O)[C@H](Cc2c[nH]c3c(Cl)cccc23)NC(=O)[C@H](Cc2ccncc2)NC(=O)[C@H](CC(N)=O)NC(=O)[C@H](CCC(=O)O)N(C)C(=O)[C@H](Cc2c[nH]c3ncccc23)NC(=O)[C@H](C)N(CC)C(=O)[C@H](Cc2ccncc2)NC1=O` [SEQ ID NO. 38] ({CH2CO}-[Nle][4Pal][NEtAla][Trp(7-aza)][NMeE]N[4Pal][Trp(7-Cl)][αMeS][Phe(4-COOH)]Y[Sar][Trp(βS-Me,7-OMe)]C-NH2; thioether N-14): the figures for the Kd (in assay [1]; in assay [2]; at human TNFR2 ECD protein) were 0.7 nM, 0.34 nM and greater than 1000 nM, respectively.
On the same counts, the results for `CCCC[C@@H]1NC(=O)[C@@H]2CC[C@@H](C2)NC(=O)[C@H]([C@@H](C)c2c[nH]c3c(OC)cccc23)NC(=O)CN(C)C(=O)[C@H](Cc2ccc(C(=O)O)cc2F)NC(=O)[C@H](Cc2ccc(C(N)=O)cc2)NC(=O)[C@](C)(CO)NC(=O)[C@H](Cc2c[nH]c3c(Cl)cccc23)NC(=O)[C@H](Cc2ccc(C(=O)O)cc2F)NC(=O)[C@H](CC(N)=O)NC(=O)[C@H]2C[C@H](O)CN2C(=O)[C@H](Cc2c[nH]c3ccccc23)NC(=O)[C@@H]2CC[C@@H](O)CN2C(=O)[C@H](Cc2ccncc2)NC1=O` [SEQ ID NO. 41] (cyclo([4Pal][Pip(5R-OH)]W[dHyp]N[Phe(2-F,4-COOH)][Trp(7-Cl)][αMeS][Phe(4-CONH2)][Phe(2-F,4-COOH)][Sar][Trp(βS-Me,7-OMe)][X1][Nle])) are 0.07 nM, 0.12 nM and greater than 1000 nM.
Take `CCCC[C@@H]1NC(=O)[C@@H]2CC[C@@H](C2)NC(=O)[C@H]([C@@H](C)c2c[nH]c3c(OC)cccc23)NC(=O)CN(C)C(=O)[C@H](Cc2ccc(C(N)=O)cc2)NC(=O)[C@H](Cc2ccc(C(N)=O)cc2)NC(=O)[C@](C)(CO)NC(=O)[C@H](Cc2c[nH]c3c(C#N)cccc23)NC(=O)[C@H](Cc2ccc(C(=O)O)cc2)NC(=O)[C@H](CC(N)=O)NC(=O)[C@H]2C[C@H](O)CN2C(=O)[C@H](Cc2c[nH]c3ccccc23)NC(=O)[C@@H]2CC[C@@H](O)CN2C(=O)[C@H](Cc2ccncc2)NC1=O` [SEQ ID NO. 45] (cyclo([4Pal][Pip(5R-OH)]W[dHyp]N[Phe(4-COOH)][Trp(7-CN)][αMeS][Phe(4-CONH2)][Phe(4-CONH2)][Sar][Trp(βS-Me,7-OMe)][X1][Nle])): the values for the Kd (in assay [1] (setting [3]); in assay [2] (setting [4]); at human TNFR2 ECD protein (setting [5])) were 0.05 nM, 0.01 nM and greater than 1000 nM, respectively.
